Source: publication PMC11542593, “Vascular endothelial growth factor receptor 2 as a potential host target for the inhibition of enterovirus replication” (Journal of Virology, 2024)
Structures can show the parent of a compound that is named as a salt.

Tests used:
[1] = CellTiter-Glo luminescent cell viability assay (cytotoxicity); conditions: human
Protocol: Fig. S1. (A) RD cells were treated with the indicated concentrations of inhibitors and incubated at 37°C for 24 h. CellTiter‐Glo® luminescent cell viability assay was used to measure the CC50 of selected inhibitors. […] (B) RD cells treated with the selected inhibitors (10 μM) were inoculated with EV-A71 at an MOI of 0.01. At 48 hpi, cells were harvested to detect the expression level of VP1 by western blotting.

[2] = system: EV-A71; assay: Viral load reduction assay in RD cells (RT-qPCR, TCID50, VP1 Western blot); type: cell-based, Human enterovirus A71; conditions: for EV-A71 viral load and viral titer, dose dependence: indicated noncytotoxic concentrations, MOI 0.1, 24 h; for EV-A71 viral load and viral titer in cell lysates and supernatant: 10 μM, MOI 0.01, 24 h
Protocol: Detection of cellular mRNA expression and viral load was performed as described previously ([24]). In brief, the infected or mock-infected cells were lysed and applied to total RNA extraction by using the MiniBEST Universal RNA Extraction Kit (TaKaRa, Code No.9767). Viral RNA in the supernatant was extracted with the MiniBEST Viral RNA Extraction Kit (TaKaRa, Code No.9766). Reverse transcription was performed using the PrimeScript RT reagent Kit (TaKaRa, Code No.PR037A) with an oligo (dT) primer. The resultant cDNAs were used for qPCR assay with the Light Cycler 480 SYBR Green I Master Mix (Roche) to measure the mRNA expression level of cellular genes or viral load in supernatants. The relative viral gene copy was determined by RT-qPCR, using GAPDH as an internal reference.
The viral titer in the indicated samples was determined by TCID50 assay as described previously ([25]). Briefly, serially diluted samples from 10^−1 to 10^−8 in DMEM were inoculated to RD cells, BGMK cells, or MRC-5 in 96‐well plates. The cells were then incubated for 2 to 3 days at 37°C. TCID50 was calculated by counting the wells with cytopathic effect in infected cells using the Reed–Muench method.
(§1) Western blot analysis was performed as described previously ([26]). In brief, the indicated cell samples were lysed in RIPA buffer supplemented with protease inhibitors (Thermo Fisher Scientific, 78430). The cell lysates were then separated in 10% SDS-PAGE and transferred to a 0.45-µm nitrocellulose membrane. After blocking, the membrane was incubated with an against VP1 antibody (GeneTex, GTX132339), VEGFR1 antibody (Abcam, ab32152), VEGFR2 antibody (Abcam, ab134191), phosphorylated VEGFR2 antibody (Tyr951) (CST 4991), VEGFR3 antibody (Beyotime, AF6918), Akt antibody (CST 4685), phosphorylated Akt antibody (CST 4060), or GAPDH antibody (GeneTex, GTX627408) diluted 1:5,000 in primary antibody dilution buffer overnight at 4°C, followed by corresponding secondary staining. The blots were visualized by western horseradish peroxidase substrate and imaged with Gel Doc XR+.
The results represent cell viability in the EV-A71-infected RD cells or 2D human intestinal organoids treated with DMSO (Negative control), Pirodavir (Positive control), or indicated VEGFR inhibitor (10 µM) relative to those in mock-infected RD cells or 2D human intestinal organoids. […] Significant inhibition of EV-A71 infection was found for both cell lysate (left) and supernatant (right) using RT-qPCR analysis. The results represent the viral load in the cells treated with indicated inhibitors relative to that in DMSO-treated cells. (C) Viral titer was also determined for inhibitor-treated samples in TCID50 assays. […] (D) Representative images of immunofluorescence assay for selected inhibitors using Rabbit anti‐VP1 antibody (green). Nuclei are counterstained with DAPI (blue). Scale bar, 50 µm.
Nuclei are counterstained with DAPI (blue). Scale bar, 50 µm.
Fig. S2. […] The results represent the viral load in the cells treated with indicated concentration of VEGFR inhibitors relative to that in DMSO-treated cells. Viral titer was also determined for samples treated with indicated concentrations of VEGFR inhibitors in TCID50 assays.
Fig. S7. Viral reduction in RD cells with Src inhibitor treatment. […] Significant inhibition of EV-A71 infection was found for both cell lysate (left) and supernatant (middle) using RT-qPCR analysis. The results represent the viral load in the cells treated with Dasatinib relative to that in DMSO-treated cells. Viral titer was also determined for inhibitor-treated samples in TCID50 assays (right). […] (C) VP1 protein levels were measured for samples treated with DMSO or Dasatinib using western blotting.
Fig. S8. Viral reduction in RD cells with Akt inhibitor treatment. […] Significant inhibition of EV-A71 infection was found for both cell lysate (left) and supernatant (middle) using RT-qPCR analysis. […]

[3] = system: EV-A71; assay: Cytopathic effect (CPE) inhibition assay in RD cells; type: cell-based, Human enterovirus A71; conditions: EV-A71, RD cells; for EC50: Enterovirus A, EVA71, read-out: EC50, compound concentration required to achieve 50% protection from virus-induced cytopathogenicity
[4] = system: Akt phosphorylation; assay: Western blot of phosphorylated Akt and total Akt in RD cells; type: cell-based; conditions: total Akt levels unaltered
Protocol: as §1
Fig. S8. Viral reduction in RD cells with Akt inhibitor treatment. […] Significant inhibition of EV-A71 infection was found for both cell lysate (left) and supernatant (middle) using RT-qPCR analysis. The results represent the viral load in the cells treated with MK-2206 relative to that in DMSO-treated cells. Viral titer was also determined for inhibitor-treated samples in TCID50 assays (right). […] (C) The levels of VP1, phosphorylated Akt and total Akt protein were measured for samples treated with DMSO or MK-2206 using western blotting.
Fig. S9. […] (A) RD cells were infected with EV-A71 at an MOI of 1, and cell lysates were collected at the indicated times. Western blotting assays were then performed to assess the levels of phosphorylated Akt and total Akt. (B)The plasmids pVEGFR2 or pEmpty vector were transfected into RD cells. At the indicated times post-transfection, cells were harvested to detect the expression levels of phosphorylated Akt and total Akt by western blotting. […] Western blotting assays were then performed to assess the levels of phosphorylated Akt and total Akt. […] At 1 hpi, cells were harvested to detect the expression levels of phosphorylated Akt and total Akt by western blotting. […]

| SMILES | CC50 at 24 h ([1]; RD cells) | EV-A71 viral load and viral titer, dose dependence [2] | SI (selectivity index), ratio CC50/EC50 [3] | EC50 [3] | CC50 at 24 h [1] | EV-A71 viral load and viral titer in cell lysates and supernatant [2] | EV-A71 structural protein VP1 expression (Western blot) ([2]; vs DMSO) | Akt phosphorylation following EV-A71 infection [4] |
| --- | --- | --- | --- | --- | --- | --- | --- | --- |
| CNC(=O)c1ccccc1Sc1ccc2c(/C=C/c3ccccn3)n[nH]c2c1 [Axitinib] | 104 ± 17.6 µM | dose-dependent inhibition |  |  |  |  |  |  |
| Cc1cc2c(F)c(Oc3ncnn4cc(OC[C@@H](C)O)c(C)c34)ccc2[nH]1 [Brivanib] |  | dose-dependent inhibition | 21.28 | 1.94 ± 0.33 µM | 41.3 ± 2.83 µM |  |  |  |
| Cc1nc(Nc2ncc(C(=O)Nc3c(C)cccc3Cl)s2)cc(N2CCN(CCO)CC2)n1 [Dasatinib] |  |  |  |  |  | significantly reduced | markedly decreased |  |
| NC1(c2ccc(-c3nc4ccn5c(=O)[nH]nc5c4cc3-c3ccccc3)cc2)CCC1 [MK-2206, MK-2206 dihydrochloride] |  |  |  |  |  | significantly suppressed |  | significantly inhibited Akt phosphorylation |
| CCOC(=O)c1ccc(OCCC2CCN(c3ccc(C)nn3)CC2)cc1 [Pirodavir] |  |  | 120.14 | 0.44 ± 0.08 µM | 52.9 ± 1.25 µM |  |  |  |
| Cc1[nH]c(/C=C2\C(=O)Nc3ccc(F)cc32)c(C)c1C(=O)NC[C@H](O)CN1CCOCC1 [SU14813] | 26.4 ± 6.09 µM | dose-dependent inhibition | 15.23 | 1.73 ± 0.18 µM |  |  |  |  |
